ChEMBL document CHEMBL3885861, “Open TG-GATES”

Organism: Rattus norvegicus
Assay: Open TG-GATES - Regimen: Daily Repeat
Format: toxicity, organism-based, Sprague-Dawley
Parameters: regimen Daily Repeat, gender Male, age 6 weeks
Settings: in vivo, po, route gavage; for APTT / Bas / Eos / Fbg / Hb / Ht / Lym / MCH / MCHC / MCV / Mono / Neu / PT / Plat / RBC / Ret / WBC: tissue Blood; for KIDNEY_L / KIDNEY_R / KIDNEY_TOTAL: tissue Kidney; for LIVER: tissue Liver; for A/G / ALP / ALT / AST / BUN / CRE / Ca / Cl / DBIL / GLC / IP / K / LDH / Na / PL / RALB / TBIL / TC / TG / TP / gamma-GTP: tissue Plasma
[1] = 0 mg/kg, 72 h, dose level Control, time 3 day
[2] = 0 mg/kg, […], dose level Control, time 7 day
[3] = 0 mg/kg, […], dose level Control, time 14 day
[4] = 0 mg/kg, […], dose level Control, time 28 day
[5] = 100 mg/kg, 72 h, dose level Low, time 3 day
[6] = 100 mg/kg, […], dose level Low, time 7 day
[7] = 100 mg/kg, […], dose level Low, time 14 day
[8] = 100 mg/kg, […], dose level Low, time 28 day

## O=C(OC[C@H]1O[C@@H](OC(=O)c2cc(O)c(O)c(OC(=O)c3cc(O)c(O)c(O)c3)c2)[C@H](OC(=O)c2cc(O)c(O)c(OC(=O)c3cc(O)c(O)c(O)c3)c2)[C@@H](OC(=O)c2cc(O)c(O)c(OC(=O)c3cc(O)c(O)c(O)c3)c2)[C@@H]1OC(=O)c1cc(O)c(O)c(OC(=O)c2cc(O)c(O)c(O)c2)c1)c1cc(O)c(O)c(OC(=O)c2cc(O)c(O)c(O)c2)c1 [TANNIC ACID]
[1]
  TERMINAL_BW: 216 g
  APTT: 17.1 s
  Bas: 0%
  Eos: 1%
  Fbg: 245.4 mg/dL
  Hb: 13.2 g/dL
  Ht: 39.3%
  Lym: 77.6%
  MCH: 21.8 pg
  MCHC: 33.4%
  MCV: 65.2 fL
  Mono: 6.4%
  Neu: 15%
  PT: 11.7 s
  Plat: 118.4 x10_4/uL
  RBC: 603.8 x10_4/ul
  Ret: 8.3%
  WBC: 101.4 x10_2/uL
  KIDNEY_L: 0.9 g
  KIDNEY_R: 1 g
  KIDNEY_TOTAL: 1.9 g
  LIVER: 10.5 g
  A/G: 2.1
  ALP: 883.4 IU/L
  ALT: 36.2 IU/L
  AST: 62.2 IU/L
  BUN: 18 mg/dL
  CRE: 0.5 mg/dL
  Ca: 10.9 mg/dL
  Cl: 104.2 meq/L
  DBIL: 0 mg/dL
  GLC: 202 mg/dL
  IP: 8 mg/dL
  K: 4.8 meq/L
  LDH: 62.4 IU/L
  Na: 139.6 meq/L
  PL: 146.8 mg/dL
  RALB: 3.8 g/dL
  TBIL: 0.3 mg/dL
  TC: 75.2 mg/dL
  TG: 112.8 mg/dL
  TP: 5.7 g/dL
  gamma-GTP: 1 IU/L
[2]
  TERMINAL_BW: 253.1 g
  APTT: 16.7 s
  Bas: 0%
  Eos: 1%
  Fbg: 219.4 mg/dL
  Hb: 12.8 g/dL
  Ht: 38.2%
  Lym: 77.8%
  MCH: 21.4 pg
  MCHC: 33.5%
  MCV: 63.9 fL
  Mono: 6.8%
  Neu: 14.4%
  PT: 11.1 s
  Plat: 101 x10_4/uL
  RBC: 598 x10_4/ul
  Ret: 6.8%
  WBC: 131.8 x10_2/uL
  KIDNEY_L: 1.1 g
  KIDNEY_R: 1.1 g
  KIDNEY_TOTAL: 2.2 g
  LIVER: 12.3 g
  A/G: 1.7
  ALP: 813.4 IU/L
  ALT: 34.4 IU/L
  AST: 60.6 IU/L
  BUN: 19 mg/dL
  CRE: 0.4 mg/dL
  Ca: 10.8 mg/dL
  Cl: 103.2 meq/L
  DBIL: 0.006 mg/dL
  GLC: 205.2 mg/dL
  IP: 8.1 mg/dL
  K: 4.4 meq/L
  LDH: 57 IU/L
  Na: 137.8 meq/L
  PL: 160.2 mg/dL
  RALB: 3.6 g/dL
  TBIL: 0.4 mg/dL
  TC: 85.4 mg/dL
  TG: 119.6 mg/dL
  TP: 5.7 g/dL
  gamma-GTP: 1 IU/L
[3]
  TERMINAL_BW: 306.2 g
  APTT: 16 s
  Bas: 0%
  Eos: 1.2%
  Fbg: 251.8 mg/dL
  Hb: 13.9 g/dL
  Ht: 41.6%
  Lym: 78%
  MCH: 20.7 pg
  MCHC: 33.4%
  MCV: 62.1 fL
  Mono: 7%
  Neu: 14%
  PT: 11.5 s
  Plat: 125.4 x10_4/uL
  RBC: 669.8 x10_4/ul
  Ret: 5.3%
  WBC: 128.6 x10_2/uL
  KIDNEY_L: 1.2 g
  KIDNEY_R: 1.2 g
  KIDNEY_TOTAL: 2.4 g
  LIVER: 14.2 g
  A/G: 1.8
  ALP: 806.2 IU/L
  ALT: 31.2 IU/L
  AST: 58.8 IU/L
  BUN: 18.4 mg/dL
  CRE: 0.6 mg/dL
  Ca: 10.7 mg/dL
  Cl: 103.8 meq/L
  DBIL: 0.018 mg/dL
  GLC: 198 mg/dL
  IP: 7.8 mg/dL
  K: 4.6 meq/L
  LDH: 81 IU/L
  Na: 139.6 meq/L
  PL: 140.2 mg/dL
  RALB: 3.8 g/dL
  TBIL: 0.3 mg/dL
  TC: 70.2 mg/dL
  TG: 115.2 mg/dL
  TP: 5.9 g/dL
  gamma-GTP: 1 IU/L
[4]
  TERMINAL_BW: 398.3 g
  APTT: 17.3 s
  Bas: 0%
  Eos: 1%
  Fbg: 229 mg/dL
  Hb: 14.7 g/dL
  Ht: 43.6%
  Lym: 84%
  MCH: 19.9 pg
  MCHC: 33.7%
  MCV: 59.2 fL
  Mono: 5.2%
  Neu: 9.8%
  PT: 11.8 s
  Plat: 112.4 x10_4/uL
  RBC: 738.4 x10_4/ul
  Ret: 2.8%
  WBC: 144.2 x10_2/uL
  KIDNEY_L: 1.4 g
  KIDNEY_R: 1.4 g
  KIDNEY_TOTAL: 2.7 g
  LIVER: 17.9 g
  A/G: 1.8
  ALP: 563.4 IU/L
  ALT: 29.4 IU/L
  AST: 56.8 IU/L
  BUN: 20.4 mg/dL
  CRE: 0.6 mg/dL
  Ca: 11 mg/dL
  Cl: 105.4 meq/L
  DBIL: 0.006 mg/dL
  GLC: 221.4 mg/dL
  IP: 7.1 mg/dL
  K: 4.4 meq/L
  LDH: 63.6 IU/L
  Na: 139.6 meq/L
  PL: 152.6 mg/dL
  RALB: 3.9 g/dL
  TBIL: 0.2 mg/dL
  TC: 73.6 mg/dL
  TG: 141.4 mg/dL
  TP: 6.2 g/dL
  gamma-GTP: 0.6 IU/L
[5]
  TERMINAL_BW: 221.9 g
  APTT: 16.9 s
  Bas: 0%
  Eos: 1%
  Fbg: 234.4 mg/dL
  Hb: 13.2 g/dL
  Ht: 39.2%
  Lym: 72.6%
  MCH: 22.3 pg
  MCHC: 33.6%
  MCV: 66.4 fL
  Mono: 12.2%
  Neu: 14.4%
  PT: 11.5 s
  Plat: 111.4 x10_4/uL
  RBC: 590.2 x10_4/ul
  Ret: 8.8%
  WBC: 90.6 x10_2/uL
  KIDNEY_L: 1 g
  KIDNEY_R: 1 g
  KIDNEY_TOTAL: 2 g
  LIVER: 11.1 g
  A/G: 2.3
  ALP: 864 IU/L
  ALT: 33.4 IU/L
  AST: 61.4 IU/L
  BUN: 18.8 mg/dL
  CRE: 0.5 mg/dL
  Ca: 11 mg/dL
  Cl: 104.2 meq/L
  DBIL: 0 mg/dL
  GLC: 204.8 mg/dL
  IP: 8.6 mg/dL
  K: 4.8 meq/L
  LDH: 68.4 IU/L
  Na: 139.8 meq/L
  PL: 154.6 mg/dL
  RALB: 4 g/dL
  TBIL: 0.3 mg/dL
  TC: 84.6 mg/dL
  TG: 100.8 mg/dL
  TP: 5.7 g/dL
  gamma-GTP: 1.2 IU/L
[6]
  TERMINAL_BW: 249.2 g
  APTT: 16.3 s
  Bas: 0%
  Eos: 1%
  Fbg: 221.6 mg/dL
  Hb: 13.4 g/dL
  Ht: 40.3%
  Lym: 74.8%
  MCH: 21 pg
  MCHC: 33.3%
  MCV: 63.3 fL
  Mono: 7.4%
  Neu: 16.8%
  PT: 11 s
  Plat: 122.5 x10_4/uL
  RBC: 638.6 x10_4/ul
  Ret: 6.5%
  WBC: 119 x10_2/uL
  KIDNEY_L: 1 g
  KIDNEY_R: 1 g
  KIDNEY_TOTAL: 2.1 g
  LIVER: 12.2 g
  A/G: 1.5
  ALP: 796.4 IU/L
  ALT: 32.2 IU/L
  AST: 62.6 IU/L
  BUN: 18.4 mg/dL
  CRE: 0.5 mg/dL
  Ca: 11.1 mg/dL
  Cl: 103.2 meq/L
  DBIL: 0.004 mg/dL
  GLC: 207.4 mg/dL
  IP: 8.3 mg/dL
  K: 4.3 meq/L
  LDH: 87.6 IU/L
  Na: 138 meq/L
  PL: 160.8 mg/dL
  RALB: 3.6 g/dL
  TBIL: 0.4 mg/dL
  TC: 84.2 mg/dL
  TG: 116.2 mg/dL
  TP: 6 g/dL
  gamma-GTP: 1.6 IU/L
[7]
  TERMINAL_BW: 296.1 g
  APTT: 16.7 s
  Bas: 0%
  Eos: 1%
  Fbg: 261 mg/dL
  Hb: 14.3 g/dL
  Ht: 42.9%
  Lym: 74.5%
  MCH: 20.9 pg
  MCHC: 33.4%
  MCV: 62.6 fL
  Mono: 6.8%
  Neu: 18%
  PT: 11.5 s
  Plat: 129.4 x10_4/uL
  RBC: 685.8 x10_4/ul
  Ret: 4.6%
  WBC: 136 x10_2/uL
  KIDNEY_L: 1.1 g
  KIDNEY_R: 1.2 g
  KIDNEY_TOTAL: 2.3 g
  LIVER: 13.7 g
  A/G: 1.8
  ALP: 726.5 IU/L
  ALT: 32 IU/L
  AST: 58.2 IU/L
  BUN: 18.5 mg/dL
  CRE: 0.6 mg/dL
  Ca: 10.9 mg/dL
  Cl: 102.8 meq/L
  DBIL: 0.01 mg/dL
  GLC: 207.5 mg/dL
  IP: 8.3 mg/dL
  K: 4.2 meq/L
  LDH: 77 IU/L
  Na: 140 meq/L
  PL: 140.2 mg/dL
  RALB: 3.9 g/dL
  TBIL: 0.3 mg/dL
  TC: 69.5 mg/dL
  TG: 100.2 mg/dL
  TP: 6.1 g/dL
  gamma-GTP: 1.8 IU/L
[8]
  TERMINAL_BW: 380.6 g
  APTT: 15.9 s
  Bas: 0%
  Eos: 1.2%
  Fbg: 230 mg/dL
  Hb: 15.1 g/dL
  Ht: 45%
  Lym: 80.4%
  MCH: 19.9 pg
  MCHC: 33.5%
  MCV: 59.5 fL
  Mono: 5.8%
  Neu: 12.4%
  PT: 12 s
  Plat: 116.4 x10_4/uL
  RBC: 757.4 x10_4/ul
  Ret: 2.8%
  WBC: 142.1 x10_2/uL
  KIDNEY_L: 1.4 g
  KIDNEY_R: 1.5 g
  KIDNEY_TOTAL: 2.9 g
  LIVER: 15.5 g
  A/G: 1.6
  ALP: 659.6 IU/L
  ALT: 34 IU/L
  AST: 64.6 IU/L
  BUN: 20.2 mg/dL
  CRE: 0.6 mg/dL
  Ca: 10.8 mg/dL
  Cl: 106.4 meq/L
  DBIL: 0.006 mg/dL
  GLC: 196.8 mg/dL
  IP: 7.4 mg/dL
  K: 4.3 meq/L
  LDH: 78.2 IU/L
  Na: 139.4 meq/L
  PL: 145.8 mg/dL
  RALB: 3.8 g/dL
  TBIL: 0.3 mg/dL
  TC: 70.6 mg/dL
  TG: 108 mg/dL
  TP: 6.2 g/dL
  gamma-GTP: 2 IU/L
